# Results from patent US10730851B2, “Polymorph of triaryldimethylpiperazine dihydrochloride and preparation method and application thereof” (priority 2016, dated 2020).
# Structures can show the parent of a compound that is named as a salt.
# Key:
# [1] = Relative bioavailability test; assay type: in vivo, SPF-grade SD rats; details: rat, in vivo, po
# Description: HPLC-MS/MS method is used to detect the blood drug concentration of target drugs in SPF-grade SD rats, and the relative bioavailability of 0.5% CMC-Na suspension of a free base and 0.5% CMC-Na solution of a polymorph form P are calculated and compared.
# 60.46 mg of a free base is accurately weighed and placed into a 15 mL centrifuge tube, 12 mL of 0.5% CMC-Na solution is measured and added into the centrifuge tube with a measuring cylinder, vortexed for 5 min, and ultrasonically dispersed for 15 min to obtain 0.5% CMC-Na suspension of free base with a concentration of 5.04 mg/ml, which is currently formulated when using and vibrated at any time during administration.
# 60.05 mg of a polymorph form P is accurately weighed and placed into a 15 mL centrifuge tube, 12 mL of 0.5% CMC-Na solution is measured and added into the centrifuge tube with a measuring cylinder, vortexed for 5 min, and ultrasonically dispersed for 15 min to obtain 0.5% CMC-Na solution of 5.00 mg/mL polymorph form P, which is currently formulated when using.
# Twelve SPF-grade SD rats are selected and randomly divided into a free base group and a polymorph form P group with 6 rats in each group (both male and female). Animals are fasted for 12 h but have free access to water. Weighing is performed and, the administration volume of each rat is calculated according to the animal weight, so that the administration dose is 20 mg/kg·bw. During administration, the drugs are each administrated by gavage, and 0.5% CMC-Na suspension/solution of the above two target drugs are extracted by 2 mL syringe respectively. The gavage needle is inserted into the stomach from the corner of the rat's mouth and pushed the solution thereto.
# Blood is collected from the fundus venous plexus of rats at 0.2 mL before (0 h) and 0.5, 1, 2, 4, 6, 8, 12 and 24 h after administration, anticoagulated with 300 IU/mL heparin (1:20) and centrifuged (3000 r/min) for 15 min. After plasma separation, the blood drug concentration of the target drug is determined by HPLC-MS/MS.
# Referring to the above-mentioned bioavailability test of the polymorph form P, the bioavailability tests of polymorph forms F, O, B and J are conducted respectively. Different from the bioavailability test of the polymorph form P, rats are given 0.5% CMC-Na solution of the polymorph form F, O, B or J by gavage respectively. Other operations are the same as the above bioavailability test.
# [2] = Dynamic moisture adsorption; assay type: physicochemical
# [3] = test system: SPF-grade SD rats; assay: Forced swimming test; assay type: in vivo; details: for antidepressant effect in forced swimming test (in words): rats, dihydrochloride; for Behavior duration, Static / Behavior duration, Swimming / Behavior duration, Wall climbing / Number of behaviors, Static / Number of behaviors, Swimming / Number of behaviors, Wall climbing: x ± SEM
# Description: Forced swimming test is used to test the antidepressant effects of polymorph forms P, F, O, B and J.
# the swimming test equipment is a transparent glass round cylinder with a height of 46 cm and an inner diameter of 20 cm, the test water temperature is 23° C.˜25° C., the test water depth is 30 cm, and each cylinder is used only once.
# (§1) 300 mg of a polymorph form P is weighed with an electronic balance, and the polymorph form P is dissolved with 0.9% normal saline, and finally the volume is fixed to 100 mL with 0.9% normal saline, at this time, the concentration of dihydrochloride in the experimental reagent is 3 mg/mL for later use.
# as §1, with “600” for “300”, “6” for “3”
# 400 mg of desipramine (DMI) is weighed with an electronic balance, DMI is dissolved with 0.9% normal saline, and then the volume is fixed to 100 mL with 0.9% normal saline for later use.
# Forty SPF-grade SD rats are prepared and randomly divided into 4 groups, namely vehicle control group, positive control group, experimental group 1 and experimental group 2, with 10 rats in each group. The day before the test, the rats were placed in water for 15 min to pre-swim for 15 min in advance to adapt to the swimming test environment, then taken out and dried, placed in the cage under an infrared lamp for 15 min and then placed in the original cage. After 24 h, a formal swimming test is conducted, that is, the rats are put into water again after 24 h, and the rats are continuously observed for 5 min. The swimming process are needed to be photographed. The drug is administered during two swimming sessions.
# The positive control group containing DMI is administered three times, at 23.5 h, 5 h and 1 h before the formal swimming test respectively. Vehicle control group, experimental group 1 and experimental group 2 are each administered only once and subcutaneously within 1 h.
# The behaviors of the rats are scored by the scorer every 5 seconds after recording the experiment.
# 1) Static—when the rat floats on the water surface without struggling and moves only to keep its head above the water surface, the rat is evaluated as static;
# 2) Swimming—if the rats have obvious swimming behaviors, not only to keep their heads above the water surface, or to travel around in a round cylinder, they are evaluated as swimming;
# 3) Wall climbing—the rats' front paws have obvious behavior of entering and leaving the water surface, usually, rats are evaluated as wall climbing in front of the round cylinder wall.
# All behavioral are scored by a single person. To avoid bias of observation, the scorer only observed and scored without knowing the administration situations. Then multiple test fragments are randomly selected, and the scorer will score the second round to determine the accuracy of observation. The test video is scored again by the second scorer to determine the accuracy between scorers. The second scorer are also required to observe without knowing the drug administration. Finally, in order to determine the effectiveness of the method, the first scorer scored again and recorded the duration of various behaviors with a stopwatch.
# SPSSwin11.0 software is used for variance analysis. One-way variance analysis is used for homogeneity of variance, and Dunnett test is used for heterogeneity of variance.
# [4] = Rough solubility test; assay type: physicochemical; details: water, thermodynamic from solid
# Description: 2.0 mg of a free base and 2.0 mg of polymorph forms B, F, P, J and O are respectively taken and placed in 3.0 mL glass bottles. Then the solvent methanol is added step by step, and ultrasound is performed to observe whether the sample is completely dissolved. If the sample is still not completely dissolved after 2.0 mL of solvent is added, the test is stopped to measure the rough solubility of the free base, polymorph forms B, F, P, J and O in methanol respectively.
# Using the same method, the rough solubility of the free base, polymorph forms B, P, F, J and O in other organic solvents or water listed in Table 6 are determined respectively.
# [5] = Experiment group 1, 30 mg/kg Sc once
# [6] = Experiment group 2, 60 mg/kg Sc once
compound,measurement,setting,value
"CC1CCN(C(=O)c2ccc([C@H](c3cccc(O)c3)N3C[C@@H](C)N(Cc4cccc(F)c4)C[C@@H]3C)cc2)CC1 [Polymorph form B, (4-((R)-((2S,5R)-4-(3-fluorobenzyl)-(2,5-dimethylpiperazine-1-yl)(3-hydroxyphenyl)methyl)phenyl)(4-methylpiperidine-1-yl)methanone dihydrochloride]",bioavailability compared with free base,[1],better bioavailability than free base
same,Crystal form change under dynamic moisture adsorption,[2],change into amorphous
same,antidepressant effect in forced swimming test (in words),[3],effectively reduce the static times and duration of forced swimming in rats
same,Solubility,[4],6400 to 7200 µg/mL
"CC1CCN(C(=O)c2ccc([C@H](c3cccc(O)c3)N3C[C@@H](C)N(Cc4cccc(F)c4)C[C@@H]3C)cc2)CC1 [Polymorph form P, (4-((R)-((2S,5R)-4-(3-fluorobenzyl)-(2,5-dimethylpiperazine-1-yl)(3-hydroxyphenyl)methyl)phenyl)(4-methylpiperidine-1-yl)methanone dihydrochloride]",AUC(0-t),"[1]; both sexes, SD, 20 mg/kg",584 ng·h/mL
same,Cmax,"[1]; both sexes, SD, 20 mg/kg",98.1 ± 25.2 ng/mL
same,Tmax,"[1]; both sexes, SD, 20 mg/kg",1.3 ± 0.5 h
same,bioavailability,"[1]; both sexes, SD, 20 mg/kg",202%
same,t1/2z,"[1]; both, SD, 20 mg/kg",2.5 ± 0.8 h
same,"Behavior duration, Static",[3]; [5],45.5 ± 7.5 s
same,"Behavior duration, Swimming",[3]; [5],142.5 ± 21.5 s
same,"Behavior duration, Wall climbing",[3]; [5],114.0 ± 19.0 s
same,"Number of behaviors, Static",[3]; [5],9.1 ± 1.5 times
same,"Number of behaviors, Swimming",[3]; [5],28.5 ± 4.3 times
same,"Number of behaviors, Wall climbing",[3]; [5],22.8 ± 3.8 times
same,"Behavior duration, Static",[3]; [6],88.5 ± 8.0 s
same,"Behavior duration, Swimming",[3]; [6],122.0 ± 14.0 s
same,"Behavior duration, Wall climbing",[3]; [6],91.0 ± 5.5 s
same,"Number of behaviors, Static",[3]; [6],17.7 ± 1.6 times
same,"Number of behaviors, Swimming",[3]; [6],24.4 ± 2.8 times
same,"Number of behaviors, Wall climbing",[3]; [6],18.2 ± 1.1 times
same,antidepressant effect in forced swimming test (in words),[3],better antidepressant effect
"CC1CCN(C(=O)c2ccc([C@H](c3cccc(O)c3)N3C[C@@H](C)N(Cc4cccc(F)c4)C[C@@H]3C)cc2)CC1 [Polymorph form F, (4-((R)-((2S,5R)-4-(3-fluorobenzyl)-(2,5-dimethylpiperazine-1-yl)(3-hydroxyphenyl)methyl)phenyl)(4-methylpiperidine-1-yl)methanone dihydrochloride]",bioavailability compared with free base,[1],better bioavailability than free base
same,antidepressant effect in forced swimming test (in words),[3],effectively reduce the static times and duration of forced swimming in rats
"CC1CCN(C(=O)c2ccc([C@H](c3cccc(O)c3)N3C[C@@H](C)N(Cc4cccc(F)c4)C[C@@H]3C)cc2)CC1 [Polymorph form J, (4-((R)-((2S,5R)-4-(3-fluorobenzyl)-(2,5-dimethylpiperazine-1-yl)(3-hydroxyphenyl)methyl)phenyl)(4-methylpiperidine-1-yl)methanone dihydrochloride]",bioavailability compared with free base,[1],better bioavailability than free base
same,antidepressant effect in forced swimming test (in words),[3],effectively reduce the static times and duration of forced swimming in rats
"CC1CCN(C(=O)c2ccc([C@H](c3cccc(O)c3)N3C[C@@H](C)N(Cc4cccc(F)c4)C[C@@H]3C)cc2)CC1 [Polymorph form O, (4-((R)-((2S,5R)-4-(3-fluorobenzyl)-(2,5-dimethylpiperazine-1-yl)(3-hydroxyphenyl)methyl)phenyl)(4-methylpiperidine-1-yl)methanone dihydrochloride]",bioavailability compared with free base,[1],better bioavailability than free base
same,Crystal form change under dynamic moisture adsorption,[2],change into amorphous
same,antidepressant effect in forced swimming test (in words),[3],effectively reduce the static times and duration of forced swimming in rats
